Reference: patent US8063225B2, “Tricyclic compound derivatives useful in the treatment of neoplastic diseases, inflammatory disorders and immunomodulatory disorders” (Chembridge Corporation, priority 2006, dated 2011)

Key:
Karpas-299 = assay: Cell proliferation inhibition, Cell Titer-Glo, Karpas-299; format: cell-based; conditions: Homo sapiens; cell proliferation assay, Karpas-299 cells
Description: (§1) IGF1R and other tyrosine kinase inhibitors can inhibit the proliferation of certain cancer cell lines indicating their possible therapeutic utility for treating the corresponding cancer types. Cancer cell lines of interest and control normal lines, including CHO, HEK293, BA/F3, COLO205, PC3, DU145, MCF7, Panc1, ACHN, Hep G2, H460, K562, TT, U87-MG, CAOV-3, SK-MEL5, Karpas 299 and human multiple myeloma cell lines H929, MM1s, MM1r, UTMC2, CPM2, KMS11, My5, KMS12PE, My7, JJN3, KMS18, U266, SKMM2, RPMI-8226 are plated in white, clear-bottomed 384-well cell culture plates at 2500-5000 cells per well and supplied with dilutions of tested compounds After a desired period of time (typically 3 days), the number of viable cells is quantitated by using Cell Titer-Glo Luminescent Cell Viability Assay (Promega), a cell proliferation assay system based on detection of total amount of ATP present as a measure of cell metabolic activity. The plated cells are mixed with the Cell Titer-Glo developing reagent and counted in a luminescence multiwell plate reader according to the standard manufacturer's protocol to generate IC50 curves for cell proliferation inhibition. Results are typically reported as percent of growth (% viability =(OD72h(compound)−ODday0))/(OD72h(no compound)−ODday0). Alternatively, viable cells are quantitated by using the conventional colorimetric MTT assay. The MTT assay is based on the cleavage of the yellow tetrazolium salt MTT to purple formazan crystal by metabolic active cells. The formazan is then solubilized, and the concentration determined by optical density at 570 nm. The cells plated and incubated with a compound as described above are supplemented with the solution of MTT and incubated for 2-3 hours. The growth medium is removed and dimethyl sulfoxide is added into each well to dissolve the formazan. The absorbance is measured on an ELISA plate reader with a test wavelength of 570 nm and a background subtraction wavelength of 630 nm to obtain sample signal (OD570-OD630). […] The results are reported in terms of IC50 value for a particular compound and a cell line in the standard 3-day proliferation assay using Cell Titer-Glo. […] The results are reported in terms of IC50 value for a particular compound and a cell line in the standard 3-day proliferation assay using MTT assay.

Alk = target: T1, Alk (Homo sapiens, UniProt Q9UM73); assay: Tyrosine kinase assay (Kinase-Glo or AlphaScreen), Alk; conditions: biochemical tyrosine kinase assay
T1 construct: 6×His- or GST-tagged kinase domain fragments of the corresponding RTKs expressed in baculovirus system; host or cells: baculovirus system
Procedure: (§2) To determine inhibition of several tyrosine kinases, such as IGF1R, InsR, Alk, TrkA and Jak2, kinase assays are conducted using either Kinase-Glo (Promega) or AlphaScreen (PerkinElmer) kinase assay platforms. The Kinase-Glo Luminescent Kinase Assay is a homogeneous method for measuring kinase activity by determining the amount of ATP remaining after a kinase reaction. The luminescent signal is proportional to the amount of ATP and inversely proportional to the amount of kinase activity. Tyrosine kinase PT66 AlphaScreen Assay is a high-sensitivity homogeneous, anti-phosphotyrosine antibody-mediated luminescent proximity method measuring, incorporation of phosphate in synthetic poly(Glu-Tyr) substrate. The kinase preparations used consist of purified recombinant, 6×His- or GST-tagged kinase domain fragments of the corresponding RTKs expressed in baculovirus system.
(§3) The IGF1R tyrosine kinase is assayed in Kinase-Glo ATP depletion assay using the synthetic polymer poly(Glu-Tyr, 4:1) (Sigma Chemicals) as a phosphoacceptor substrate. Each reaction mixture consists of a total volume of 10 μl and contains 40 ng of the enzyme, 5 μg of poly(Glu-Tyr), 10 μM of ATP and variable concentrations of test compounds. The mixtures also contain 50 mM Tris-HCl, pH 7.5; 5 mM MgCl2; 5 mM MnCl2; 2 mM DTT and 0.01% Tween 20. The reaction mixtures are incubated at 37° C. for 60 minutes and residual concentration of ATP in the mixture is determined by adding luciferase-containing Kinase-Glo (Promega) development reagent and counting luminescence levels using Fusion Universal Microplate Analyzer (PerkinElmer). Tested compounds are dissolved in dimethyl sulfoxide to a stock concentration of 10 mM and are typically evaluated in the assay at eight concentrations in 1 nM to 20 μM range, each in quadruplicate. […] IC50 values are derived by non-linear regression analysis using Prism 3.0 software (Graphpad Software). Other tyrosine kinases are assayed according to the same protocol after titrating amount of the enzyme to provide optimal signal-to-noise ratio and no more than 30% of total ATP consumption in the reaction conditions used.
(§4) The IGF1R tyrosine kinase is assayed in Phosphotyrosine (PT66 or PT 100) AlphaScreen chemiluminescent assay (PerkinElmer) according to the manufacturerer's recommendations. Each kinase reaction mixture consists of a total volume of 15 μl and contains 0.1-1 ng of the enzyme, 7 ng of biotinylated poly(Glu-Tyr) (Cis-Bio), 10 μM of ATP and variable concentrations of test compounds. The mixtures also contain 50 mM Tris-HCl, pH 7.5; 5 mM MgCl2; 5 mM MnCl2; 2 mM DTT and 0.01% Tween 20. The reaction mixtures are incubated at room temperature for 30 minutes. Ten (10) μl of the mixture of […] and donor beads (as supplied by the manufacturer) is then added to the reaction and the incubation is continued for an additional 60 minutes.

Ba/F3 = assay: Cell proliferation inhibition, Cell Titer-Glo, Ba/F3; format: cell-based; conditions: Mus musculus, BaF3; cell proliferation assay, Ba/F3 cells
Description: as §1

Jak2 = target: T2, Jak2 (Homo sapiens, UniProt O60674); assay: Tyrosine kinase assay (Kinase-Glo or AlphaScreen), Jak2; conditions: biochemical tyrosine kinase assay
T2 construct: 6×His- or GST-tagged kinase domain fragments of the corresponding RTKs expressed in baculovirus system; host or cells: baculovirus system
Procedure: as §2, §3, §4

InsR = target: T3, InsR (Homo sapiens, UniProt P06213); assay: Tyrosine kinase assay (Kinase-Glo or AlphaScreen), InsR; conditions: biochemical tyrosine kinase assay
T3 construct: 6×His- or GST-tagged kinase domain fragments of the corresponding RTKs expressed in baculovirus system; host or cells: baculovirus system
Procedure: as §2, §3, §4

K562 = assay: Cell proliferation inhibition, Cell Titer-Glo, K562; format: cell-based; conditions: Homo sapiens; cell proliferation assay, K562 cells
Description: as §1

IGF1R tyrosine kinase = target: T4, IGF1R tyrosine kinase (Homo sapiens, UniProt P08069); assay: IGF1R tyrosine kinase assay (Kinase-Glo ATP depletion or PT66/PT100 AlphaScreen); conditions: biochemical tyrosine kinase assay
T4 construct: 6×His- or GST-tagged kinase domain fragments of the corresponding RTKs expressed in baculovirus system; host or cells: baculovirus system
Procedure: as §2, §3, §4

T1 sequence (Q9UM73 1116-1392 limits assumed, species assumed): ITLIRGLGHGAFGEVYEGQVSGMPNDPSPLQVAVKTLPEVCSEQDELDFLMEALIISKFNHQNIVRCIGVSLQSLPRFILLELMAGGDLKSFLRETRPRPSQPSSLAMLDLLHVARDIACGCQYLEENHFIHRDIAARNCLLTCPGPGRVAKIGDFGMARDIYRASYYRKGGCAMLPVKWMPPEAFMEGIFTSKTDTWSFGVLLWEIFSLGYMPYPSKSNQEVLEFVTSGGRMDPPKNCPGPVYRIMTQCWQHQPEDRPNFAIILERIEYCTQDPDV
T4 sequence (P08069 999-1274 limits assumed): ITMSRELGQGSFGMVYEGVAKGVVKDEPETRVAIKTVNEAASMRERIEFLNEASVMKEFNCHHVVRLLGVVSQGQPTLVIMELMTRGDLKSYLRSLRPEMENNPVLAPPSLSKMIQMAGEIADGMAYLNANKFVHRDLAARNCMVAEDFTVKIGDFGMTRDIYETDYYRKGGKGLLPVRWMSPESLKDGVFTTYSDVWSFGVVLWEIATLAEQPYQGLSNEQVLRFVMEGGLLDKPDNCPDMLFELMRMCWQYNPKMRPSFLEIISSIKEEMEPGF
T2 sequence (O60674 849-1124 limits assumed, species assumed): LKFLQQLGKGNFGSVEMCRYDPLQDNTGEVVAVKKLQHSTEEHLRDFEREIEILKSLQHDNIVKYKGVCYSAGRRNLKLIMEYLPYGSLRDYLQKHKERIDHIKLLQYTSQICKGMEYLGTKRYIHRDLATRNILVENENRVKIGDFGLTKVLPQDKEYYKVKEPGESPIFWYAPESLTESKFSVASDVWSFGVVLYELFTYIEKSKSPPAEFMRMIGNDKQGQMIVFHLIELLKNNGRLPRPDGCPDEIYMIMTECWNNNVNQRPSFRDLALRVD
T3 sequence (P06213 1023-1298 limits assumed, species assumed): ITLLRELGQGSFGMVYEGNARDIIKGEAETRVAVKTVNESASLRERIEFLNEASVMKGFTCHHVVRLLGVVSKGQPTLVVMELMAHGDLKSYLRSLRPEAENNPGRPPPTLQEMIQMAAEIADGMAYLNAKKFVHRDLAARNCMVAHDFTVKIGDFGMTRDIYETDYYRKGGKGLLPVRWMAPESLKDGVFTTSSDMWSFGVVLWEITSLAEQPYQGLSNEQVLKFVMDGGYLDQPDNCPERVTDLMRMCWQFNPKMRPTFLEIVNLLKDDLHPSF

Row | Compound | IC50 (Karpas-299) | IC50 (Alk) | IC50 (Ba/F3) | IC50 (Jak2) | IC50 (InsR) | IC50 (K562) | IC50 (IGF1R tyrosine kinase)
1 | CN1CCC(N2C(=O)c3cc4nc(-c5c(NC[C@@H](O)COc6cccc(N7CCOCC7)c6)ccnc5O)[nH]c4cc3C2=O)CC1 [compound 53] | > 15 µM | 0.5 to 5 µM | > 15 µM | 0.5 to 5 µM | 5 to 15 µM | > 15 µM | 5 to 15 µM
2 | CN1CCC(N2C(=O)c3cc4nc(-c5c(NC[C@@H](O)COc6cccc7c6OC(F)(F)C(F)O7)cc[nH]c5=O)[nH]c4cc3C2=O)CC1 (stereo partly shown) [compound 83] | > 15 µM | 0.5 to 5 µM | > 15 µM | 0.5 to 5 µM | < 0.5 µM | > 15 µM | < 0.5 µM
3 | CN1CCC(N2C(=O)c3cc4nc(-c5c(NC[C@@H](O)COc6cccc(C(F)(F)F)c6)ccnc5O)[nH]c4cc3C2=O)CC1 [compound 73] | 0.5 to 5 µM | 5 to 15 µM | > 15 µM | 0.5 to 5 µM | 0.5 to 5 µM | 0.5 to 5 µM | 0.5 to 5 µM
4 | CN1CCC(N2C(=O)c3cc4nc(-c5c(NNC(=O)C(O)c6ccccc6)ccnc5O)[nH]c4cc3C2=O)CC1 (stereo not shown) [compound 67] | > 15 µM | 5 to 15 µM | > 15 µM | 0.5 to 5 µM | 5 to 15 µM | > 15 µM | > 15 µM
5 | Cc1ccc(OCC(O)CNc2ccnc(O)c2-c2nc3cc4c(cc3[nH]2)C(=O)N(CC(C)(C)CN(C)C)C4=O)c(C)c1 (stereo not shown) [compound 62] | 5 to 15 µM | 5 to 15 µM | 5 to 15 µM | 5 to 15 µM | 0.5 to 5 µM | 0.5 to 5 µM | < 0.5 µM
6 | CN1CCC(N2C(=O)c3cc4nc(-c5c(NC[C@@H](O)COc6cccc(Br)c6)ccnc5O)[nH]c4cc3C2=O)CC1 [compound 76] | 0.5 to 5 µM | 0.5 to 5 µM | 0.5 to 5 µM | 0.5 to 5 µM | 0.5 to 5 µM | 0.5 to 5 µM | 0.5 to 5 µM
7 | Cc1cccc(OCC(O)CNc2cc[nH]c(=O)c2-c2nc3cc4c(cc3[nH]2)C(=O)N(C2CCN(C)CC2)C4=O)c1 (stereo not shown) [compound 105] | > 15 µM | 5 to 15 µM | > 15 µM | 0.5 to 5 µM | 0.5 to 5 µM | 5 to 15 µM | 0.5 to 5 µM
8 | Cc1ccc(SC[C@H](O)CNc2cc[nH]c(=O)c2-c2nc3cc4c(cc3[nH]2)C(=O)N(C2CCN(C)CC2)C4=O)c(C)c1 [compound 79] | 5 to 15 µM | 0.5 to 5 µM | 5 to 15 µM | 0.5 to 5 µM | 0.5 to 5 µM | 0.5 to 5 µM | 0.5 to 5 µM
9 | CN1CCC(N2C(=O)c3cc4nc(-c5c(NC[C@@H](O)COc6cccc(C#N)c6)ccnc5O)[nH]c4cc3C2=O)CC1 [compound 52] | > 15 µM | 0.5 to 5 µM | > 15 µM | 0.5 to 5 µM | 0.5 to 5 µM | > 15 µM | < 0.5 µM
10 | O=C1c2cc3nc(-c4c(NC[C@@H](O)c5cccc(Cl)c5)cc[nH]c4=O)[nH]c3cc2C(=O)N1CCO [compound 43] | 5 to 15 µM | > 15 µM | > 15 µM | 0.5 to 5 µM | 0.5 to 5 µM | 5 to 15 µM | 0.5 to 5 µM
11 | CN1CCC(N2C(=O)c3cc4nc(-c5c(NC[C@@H](O)COc6ccc(C#N)c(Cl)c6)ccnc5O)[nH]c4cc3C2=O)CC1 [compound 77] | > 15 µM | 0.5 to 5 µM | > 15 µM | 0.5 to 5 µM | 5 to 15 µM | > 15 µM | 0.5 to 5 µM
12 | CN1CCC(N2C(=O)c3cc4nc(-c5c(NC[C@@H](O)Cn6ccc7c(C#N)cccc76)cc[nH]c5=O)[nH]c4cc3C2=O)CC1 [compound 112] | 0.5 to 5 µM | 0.5 to 5 µM | 5 to 15 µM | 0.5 to 5 µM | 0.5 to 5 µM | 5 to 15 µM | 0.5 to 5 µM
13 | CN1CCC(N2C(=O)c3cc4nc(-c5c(NC[C@@H](O)COc6ccc(F)c(Cl)c6)ccnc5O)[nH]c4cc3C2=O)CC1 [compound 74] | 0.5 to 5 µM | 5 to 15 µM | 0.5 to 5 µM | 0.5 to 5 µM | 0.5 to 5 µM | 0.5 to 5 µM | 0.5 to 5 µM
14 | CN(C)CCN1CCC(N2C(=O)c3cc4nc(-c5c(NC[C@@H](O)COc6c(F)ccc(Cl)c6F)cc[nH]c5=O)[nH]c4cc3C2=O)CC1 [compound 128] | > 15 µM | 0.5 to 5 µM | > 15 µM | 0.5 to 5 µM | 0.5 to 5 µM | > 15 µM | < 0.5 µM
15 | Cc1ccc(Cl)cc1OC[C@H](O)CNc1ccnc(O)c1-c1nc2cc3c(cc2[nH]1)C(=O)N(C1CCN(C)CC1)C3=O [compound 55] | 0.5 to 5 µM | 0.5 to 5 µM | 0.5 to 5 µM | 0.5 to 5 µM | 0.5 to 5 µM | 0.5 to 5 µM | < 0.5 µM
16 | CN(C)CC(C)(C)CN1C(=O)c2cc3nc(-c4c(NC[C@@H](O)c5cccc(Cl)c5)ccnc4O)[nH]c3cc2C1=O [compound 60] | > 15 µM | 5 to 15 µM | > 15 µM | 0.5 to 5 µM | 0.5 to 5 µM | > 15 µM | 0.5 to 5 µM
17 | Cc1ccc(Cl)cc1OC[C@@H](O)CNc1ccnc(O)c1-c1nc2cc3c(cc2[nH]1)C(=O)N(C1CCN(C)CC1)C3=O [compound 56] | 0.5 to 5 µM | 0.5 to 5 µM | 0.5 to 5 µM | 0.5 to 5 µM | 0.5 to 5 µM | 0.5 to 5 µM | 0.5 to 5 µM
18 | COc1cc(F)ccc1OC[C@@H](O)CNc1ccnc(O)c1-c1nc2cc3c(cc2[nH]1)C(=O)N(C1CCN(C)CC1)C3=O [compound 58] | 5 to 15 µM | 0.5 to 5 µM | 5 to 15 µM | 5 to 15 µM | 0.5 to 5 µM | 5 to 15 µM | 0.5 to 5 µM
19 | CC(C)CNCC(O)CNc1ccnc(O)c1-c1nc2cc3c(cc2[nH]1)C(=O)N(C1CCN(C)CC1)C3=O (stereo not shown) [compound 66] | > 15 µM | > 15 µM | > 15 µM | > 15 µM | > 15 µM | > 15 µM | > 15 µM
